Laboratory results: patent EP2000140A1, “Use of derivatives of 3-oxo-2,3-dihydro-5H-thiazolo[3,2-a]pyrimidine or of 3-oxo-2,3-dihydro-5H-imidazolo[3,2-a]pyrimidine for the preparation of pharmaceutical compositions intended for the treatment of cancer” (INSTITUT NATIONAL DE LA SANTE ET DE LA RECHERCHE MEDICALE …, priority 2007, dated 2008)
Counter-ions that a name gives are not always drawn. Like-named read-outs stand apart in the source and are kept apart here.

Columns and labels:
[1] = molecular target: T1, MBP-CDC25B3 recombinant enzyme (Homo sapiens, UniProt P30305); assay: In vitro enzymatic assay (fluorescein diphosphate as substrate); format: biochemical; conditions: recombinant fused MBP-CDC25B protein, fluorescein diphosphate 30 µM as substrate, concentration response up to 100 µM
T1 construct: made in house
T1 sequence (P30305 1-580): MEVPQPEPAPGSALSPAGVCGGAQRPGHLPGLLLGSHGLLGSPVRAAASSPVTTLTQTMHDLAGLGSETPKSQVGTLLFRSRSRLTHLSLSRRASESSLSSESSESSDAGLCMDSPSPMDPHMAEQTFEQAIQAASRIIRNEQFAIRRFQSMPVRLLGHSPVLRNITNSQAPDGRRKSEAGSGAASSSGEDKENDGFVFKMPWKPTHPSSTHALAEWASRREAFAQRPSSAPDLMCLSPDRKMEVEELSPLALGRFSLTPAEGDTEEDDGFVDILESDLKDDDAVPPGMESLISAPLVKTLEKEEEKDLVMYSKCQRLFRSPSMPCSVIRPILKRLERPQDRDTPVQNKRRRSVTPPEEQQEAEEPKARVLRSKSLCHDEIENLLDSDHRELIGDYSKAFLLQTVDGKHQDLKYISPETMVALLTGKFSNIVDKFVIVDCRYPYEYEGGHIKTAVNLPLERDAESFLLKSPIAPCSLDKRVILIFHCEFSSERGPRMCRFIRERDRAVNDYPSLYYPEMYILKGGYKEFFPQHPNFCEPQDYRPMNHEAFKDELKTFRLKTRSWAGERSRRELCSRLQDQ
Description: The activity of the MBP-CDC25B3 recombinant enzyme was monitored using fluorescein diphosphate as the substrate. The assay was performed in 96-well plates in a final volume of 200 µL. The maltose binding protein-CDC25B3 was kept in elution buffer [50mM phosphate pH 7.5, 300 mM NaCl, 500 mM imidazole, 10% glycerol]. It was diluted in assay buffer [30 mM Tris-HCl (pH 8.2), 75 mM NaCl, 0.67 mM EDTA, 0.033% BSA, 1 mM DTT]. The final concentration of CDC25B3 was 75 ng/well. Products were studied in a concentration response up to 100 µM. The reaction was initiated by addition of 30 µM of fluorescein diphosphate followed by immediate measure of fluorescein emission with a Fluoroskan Ascent (Lab Systems; excitation filter: 485 nm, emission filter: 530 nm). The results are expressed as the means of at least two independent experiments with three determinations per tested concentration and per experiment. For each compound, the drug concentration required for 50% inhibition (IC50) was determined from a sigmoidal dose-response curve using GraphPad Prism (GraphPad Software, San Diego, CA).
The compounds of formula (I) were evaluated for in vitro enzymatic activity inhibition on the recombinant fused MBP-CDC25B protein with fluorescein diphosphate as the substrate.

HeLa cells = assay: Clonogenic assay (cloning inhibition, colony counting after crystal violet staining); format: cell-based; conditions: 10 days incubation
Description: For cloning inhibition assays, HeLa cells were plated at 100 cells/well in 6-well tissue culture plates with 2.5 mL of medium/well. After 24 h growing at 37 °C in a humidified atmosphere of 5% CO2, the culture medium was replaced by control medium or medium containing inhibitors at increasing concentrations (up to 100 µM) and incubated for 10 days. Cells were then washed with […] phosphate-buffered saline and fixed in 10% formaldehyde for 30 minutes at room temperature. They were carefully rinsed with water, stained with 1 mL crystal violet (2 g in 100 mL ethanol, then 2 mL in 100 mL water) for 10 minutes and finally rinsed with water. The plating efficiency was determined by counting the colonies. The results are expressed as the means of two independent experiments with three determinations per tested concentration. For each compound, the IC50 was determined from a sigmoidal dose-response using GraphPad Prism (GraphPad Software, San Diego, CA).
The effects on cell proliferation were further investigated in a clonogenic assay on HeLa cells. HeLa cells were treated at day 1 with increasing concentration of drugs and then plated for an additional 10-day. After crystal violet staining and colony counting, dose-response curve were drawn and the IC50 values determined.

[2] = Homo sapiens, 240 h, read-out: IC50

Row | Structure (SMILES) | IC50 [1] [µM] | IC50 (HeLa cells; mesylate) [µM] | IC50 (HeLa cells; Homo sapiens, HeLa, 240 h) [µM] | IC50 (HeLa cells; [2]) [µM]
1 | CCOC(=O)C1=C(C)N=c2sc(=Cc3ccc(O)cc3)c(=O)n2C1c1ccc2c(c1)OCO2 (centres unmarked) [(1a), ethyl 5-(benzo[1,3]dioxol-5-yl)-2-(4-hydroxybenzylidene)-7-methyl-3-oxo-2,3-dihydro-5H-thiazolo[3,2-a]pyrimidinium-6-carboxylate mesylate] | 6 | 14.8 |  | 
2 | COC(=O)C1=C(C)N=c2sc(=Cc3ccc(O)cc3)c(=O)n2C1c1ccc2c(c1)OCO2 (centres unmarked) [(12a), methyl 5-(benzo[1,3]dioxol-5-yl)-2-(4-hydroxybenzylidene)-7-methyl-3-oxo-2,3-dihydro-5H-thiazolo[3,2-a]pyrimidine-6-carboxylate] | 9.2 |  |  | 
3 | CCOC(=O)C1=C(C)N=c2sc(=Cc3ccc(O)cc3)c(=O)n2C1c1ccc2c(c1)OCO2 (stereo not drawn) [Compound 1, ethyl 5-(benzo[1,3]dioxol-5-yl)-2-(4-hydroxybenzylidene)-7-methyl-3-oxo-2,3-dihydro-5H-thiazolo[3,2-α]pyrimidine-6-carboxylate] | 13 |  | 15.9 | 
4 | CCOC(=O)C1=C(C)N=c2sc(=Cc3cc(Br)c(O)c(Br)c3)c(=O)n2C1c1ccc2c(c1)OCO2 (centres unmarked) [Compound 12, ethyl 5-(benzo[1,3]dioxol-5-yl)-2-(3,5-dibromo-4-hydroxybenzylidene)-7-methyl-3-oxo-2,3-dihydro-5H-thiazolo[3,2-a]pyrimidine-6-carboxylate] | 16.7 |  |  | 9.75
5 | CCOC(=O)C1=C(C)N=c2sc(=Cc3ccc(OC(C)=O)c(OC(C)=O)c3)c(=O)n2C1c1ccc2c(c1)OCO2 (centres unmarked) [Compound (5a), ethyl 2-(3,4-diacetoxybenzylidene)-5-(benzo[1,3]dioxol-5-yl)-7-methyl-3-oxo-2,3-dihydro-5H-thiazolo[3,2-a]pyrimidine-6-carboxylate] | 1.2 |  |  | 1.8
6 | CCOC(=O)C1=C(C)N=c2sc(=Cc3ccc(OC(C)=O)c(OC(C)=O)c3)c(=O)n2C1c1ccc(OC)c(OC)c1 (centres unmarked) [Compound (5b), ethyl 2-(3,4-diacetoxybenzylidene)-5-(3,4-dimethoxyphenyl)-7-methyl-3-oxo-2,3-dihydro-5H-thiazolo[3,2-a]pyrimidine-6-carboxylate] | 2.9 |  |  | 3.5
